Drawing on PubChem BioAssay (NCI), this text covers GI50 and TGI for 9 compounds.

Among the test systems are KM12 colon; 786-0 renal; EKVX NSCLC; MDA-MB-231 breast; NCI-H522 lung; A498 renal; PC-3 prostate; HOP-92 NSCLC.
Holding throughout (assay): inhibition of tumour cell growth, NCI panel, 48 h

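Method: 48-hour compound exposure of cells in 96-well plates, five concentrations, linear interpolation of endpoints. Abbreviation: GI50, concentration required for 50% inhibition of growth. TGI denotes the concentration required for complete inhibition of growth.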 Bounds are passed on as bounds.

With `Cc1ccc2c(ccc3c[n+]4c5ccccc5ccc4n32)c1`, the GI50 was 0.34 µM with KM12 colon; 2.56 µM in the assay on 786-0 renal; 0.484 µM with EKVX NSCLC; 2.7 µM with MDA-MB-231 breast; 1.09 µM in the assay on NCI-H522 lung; 0.437 µM with A498 renal. Further, the GI50 in the assay on PC-3 prostate is 0.946 µM; with HOP-92 NSCLC it was 1.54 µM. Besides, the TGI in the assay with KM12 colon is 2.09 µM; in the assay on 786-0 renal it was 14.8 µM; in the assay with EKVX NSCLC, 25.4 µM; in the assay on MDA-MB-231 breast it was 11.6 µM; in the assay on NCI-H522 lung, 3.8 µM; in the assay with A498 renal it was 5.78 µM. The figures for the TGI in the assay on PC-3 prostate and with HOP-92 NSCLC were 10.4 µM and 5.47 µM, respectively.
On to `N#Cc1cnc2cc(OC[C@H](O)CO)c(NC(=O)CC3CSSC3)cc2c1Nc1ccc(OCc2cccc(F)c2)c(Cl)c1`, for which the GI50 in the assay on KM12 colon was 0.155 µM; in the assay with 786-0 renal, 1.76 µM; in the assay with EKVX NSCLC it was 0.696 µM; with MDA-MB-231 breast it was 0.288 µM; in the assay with NCI-H522 lung, 0.729 µM; in the assay with A498 renal it was 1.03 µM. Moreover, the GI50 is 0.162 µM in the assay with PC-3 prostate and 2.23 µM in the assay on HOP-92 NSCLC. In addition, the TGI came to 0.45 µM in the assay on KM12 colon; 9.6 µM in the assay on 786-0 renal; 1.67 µM in the assay with EKVX NSCLC; 1.03 µM in the assay with MDA-MB-231 breast; 1.59 µM in the assay with NCI-H522 lung; 2.45 µM with A498 renal. Besides, the TGI with PC-3 prostate stood at 0.451 µM; in the assay with HOP-92 NSCLC, 8.04 µM.
With `CN(CCCN)CCCNc1nc2ccccc2c2[nH]c3ccccc3c12`, the GI50 in the assay on KM12 colon is 0.0513 µM; with 786-0 renal, 0.169 µM; in the assay with EKVX NSCLC, 1.44 µM; in the assay with MDA-MB-231 breast, 0.231 µM; with NCI-H522 lung it was 0.0613 µM; in the assay with A498 renal it was 1.61 µM. Also, the GI50 is 0.342 µM in the assay with PC-3 prostate and 0.208 µM in the assay with HOP-92 NSCLC. The TGI with KM12 colon was found to be 0.314 µM; with 786-0 renal, 0.853 µM; with EKVX NSCLC, 8.2 µM; in the assay on MDA-MB-231 breast, 0.774 µM; in the assay with NCI-H522 lung, 0.215 µM; with A498 renal it was 3.08 µM. The TGI in the assay with PC-3 prostate was found to be 1.28 µM; in the assay with HOP-92 NSCLC, 0.736 µM.
Take `CNC(=O)n1ccc2cc(Oc3ccnc(NC(=O)c4ccc(C5CCN(CCO)CC5)cc4)c3)c(OCCOC)cc21`: the GI50 with KM12 colon was 10.4 µM; in the assay on 786-0 renal, 1.94 µM; with EKVX NSCLC, 14.7 µM; in the assay with MDA-MB-231 breast it was 2.46 µM; in the assay with NCI-H522 lung, 3.09 µM; in the assay on PC-3 prostate it was 6.1 µM. Moreover, the GI50 with HOP-92 NSCLC is 3.48 µM. Further, the TGI stood at 24.5 µM in the assay with KM12 colon; 4.38 µM in the assay on 786-0 renal; 29.3 µM in the assay with EKVX NSCLC; 6.11 µM with MDA-MB-231 breast; 11 µM in the assay with NCI-H522 lung; 26.2 µM with PC-3 prostate. In the assay on HOP-92 NSCLC, this compound came in with a TGI of 20.6 µM.
On to `O=C1c2ccccc2-c2c1c1ccccc1c(=O)n2CCCNCCCNCCCn1c2c(c3ccccc3c1=O)C(=O)c1ccccc1-2`, for which the GI50 with KM12 colon was 0.028 µM; in the assay on 786-0 renal, under 0.0362 µM; with EKVX NSCLC, 0.25 µM; in the assay on MDA-MB-231 breast, under 0.01 µM; in the assay with NCI-H522 lung, under 0.01 µM; in the assay with A498 renal it was 1.25 µM. Moreover, the GI50 in the assay on PC-3 prostate was 0.0397 µM; in the assay on HOP-92 NSCLC, 0.587 µM. Besides, the TGI with KM12 colon was determined as 0.219 µM; with 786-0 renal, 0.172 µM; with EKVX NSCLC it was 0.595 µM; in the assay with MDA-MB-231 breast, 0.112 µM; in the assay on NCI-H522 lung, 0.0554 µM; in the assay on A498 renal, 2.61 µM. Further, the TGI in the assay on PC-3 prostate was 0.142 µM; in the assay with HOP-92 NSCLC, 2.18 µM.
As to `O=CNc1c(Cl)cc2c(c1Cl)Cc1cc([N+](=O)[O-])ccc1-2`, the GI50 was 2.51 µM in the assay with KM12 colon; 20 µM in the assay with 786-0 renal; 0.359 µM in the assay on EKVX NSCLC; 8.16 µM with MDA-MB-231 breast; 3.05 µM in the assay on NCI-H522 lung; 4.07 µM with A498 renal. Also, the GI50 was 8.06 µM in the assay with PC-3 prostate and 6.73 µM in the assay with HOP-92 NSCLC. The TGI in the assay on KM12 colon was 11.9 µM; with 786-0 renal, over 77 µM; in the assay with EKVX NSCLC it was 13.6 µM; in the assay with MDA-MB-231 breast, 47.7 µM; in the assay on NCI-H522 lung it was over 29.1 µM; in the assay with A498 renal it was 48.4 µM. Also, the TGI in the assay on PC-3 prostate and in the assay with HOP-92 NSCLC was over 100 µM throughout.
With `CCCCOc1ccc(NC(N)=Nc2ccc(Cl)cc2)cc1`, the TGI with KM12 colon stood at 26.1 µM; in the assay with 786-0 renal it was 23.2 µM; in the assay on EKVX NSCLC, 14.7 µM; in the assay on MDA-MB-231 breast it was 27.2 µM; with NCI-H522 lung it was 16.5 µM; in the assay on A498 renal it was 14.5 µM. The TGI was 18.3 µM in the assay with PC-3 prostate and 16 µM with HOP-92 NSCLC.
Take `CCN(CC)c1ccc(C(=C2C=CC(=[N+](CC)Cc3cccc(S(=O)(=O)O)c3)C=C2)c2ccc(N(CC)Cc3cccc(S(=O)(=O)O)c3)cc2)cc1`: the GI50 with KM12 colon was 4.36 µM; in the assay with 786-0 renal, 12.9 µM; with EKVX NSCLC, 6.82 µM; with MDA-MB-231 breast, 9.61 µM; in the assay with NCI-H522 lung it was 7.88 µM; in the assay with A498 renal, 5.35 µM. In addition, the figures for the GI50 with PC-3 prostate and in the assay with HOP-92 NSCLC were 6.87 µM and 15.2 µM, respectively. In addition, the TGI in the assay on KM12 colon is 28.9 µM; in the assay on 786-0 renal, 98.9 µM; in the assay with EKVX NSCLC, over 100 µM; in the assay on MDA-MB-231 breast it was over 92.6 µM; in the assay on NCI-H522 lung it was over 79.2 µM; in the assay on A498 renal, 32.4 µM. Further, the TGI is over 66.3 µM in the assay on PC-3 prostate and 65.8 µM in the assay with HOP-92 NSCLC.
As to `COc1c(CCC[P+](c2ccccc2)(c2ccccc2)c2ccccc2)cc2c(c1OC)OCO2`, the GI50 in the assay on KM12 colon is 0.643 µM; in the assay with 786-0 renal, 3.91 µM; in the assay on EKVX NSCLC, 3.88 µM; in the assay with MDA-MB-231 breast it was 2.14 µM; with NCI-H522 lung, 1.75 µM; in the assay on A498 renal, 0.0261 µM. The GI50 in the assay on PC-3 prostate is 0.961 µM; in the assay on HOP-92 NSCLC, 0.507 µM. The TGI in the assay on KM12 colon was 7.48 µM; in the assay on 786-0 renal, 26.9 µM; with EKVX NSCLC it was 51.1 µM; in the assay on MDA-MB-231 breast, 10.9 µM; in the assay on NCI-H522 lung, 10.8 µM; with A498 renal it was 3.3 µM. For the same compound, the results for the TGI with PC-3 prostate and in the assay on HOP-92 NSCLC were 22.4 µM and 4.93 µM, respectively.
